The target of assay [1] is T1, Tissue factor (Homo sapiens, UniProt P13726). Description: Inhibition of TNF-alpha-induced tissue factor activity in HUVEC preincubated for 4 hrs assessed after 4 hrs of TNFalpha challenge by one stage clotting assay.
In assay [2] the target is T1, Tissue factor. Description: Inhibition of LPS-induced tissue factor activity in HUVEC preincubated for 4 hrs assessed after 4 hrs of LPS challenge by one stage clotting assay.

T1 sequence (P13726 whole entry): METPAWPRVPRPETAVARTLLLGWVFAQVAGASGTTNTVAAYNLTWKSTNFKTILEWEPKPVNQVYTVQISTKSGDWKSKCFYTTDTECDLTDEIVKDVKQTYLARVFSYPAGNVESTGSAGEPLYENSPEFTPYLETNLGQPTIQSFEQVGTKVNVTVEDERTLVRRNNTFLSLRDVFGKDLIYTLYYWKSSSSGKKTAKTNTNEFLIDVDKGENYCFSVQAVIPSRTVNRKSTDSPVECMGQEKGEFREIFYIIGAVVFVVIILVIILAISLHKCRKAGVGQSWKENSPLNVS

What is called IC50 is the point on the concentration scale where inhibition reaches its midpoint. With `CC(=CC(C)C=CC(=O)NO)C(=O)c1ccc(N(C)C)cc1` (centres undefined), on Tissue factor [1], half-maximal inhibition (IC50) was put at 0.03 µM. As for `CCCC(=O)O`, the IC50 at Tissue factor [1] turned out to be 2000 µM; on Tissue factor [2] it was 1000 µM. For `CCC(=O)CCCCC[C@@H]1NC(=O)[C@H]2CCCCN2C(=O)[C@H]([C@@H](C)CC)NC(=O)[C@H](Cc2cn(OC)c3ccccc23)NC1=O` [(6S,9S,12S,14aR)-6-((S)-sec-Butyl)-9-(1-methoxy-1H-indol-3-ylmethyl)-12-(6-oxo-octyl)-decahydro-4a,7,10,13-tetraaza-benzocyclododecene-5,8,11,14-tetraone], the concentration for half-maximal inhibition (IC50) turned out to be 0.2 µM against Tissue factor [1] and 0.15 µM against Tissue factor [2]. The corresponding values for `CCCC(CCC)C(=O)O` [Valproinsaeure] are 2000 µM and 1500 µM. The corresponding values for `Nc1ccccc1NC(=O)c1ccc(CNC(=O)OCc2cccnc2)cc1` [benzamide-type inhibitor, 3] are 10 µM and 6 µM.

Source of the values: BindingDB's records for doi:10.1074/jbc.M703586200 (University of Minnesota, 2007).
